Measurements as given in PubChem BioAssay AID1259407 (Chemical Carcinogenesis Research Information System (CCRIS), 2018).
Active and inactive are the calls of the source. No rule for the calls is given here.

System: CCRIS mutagenicity, Ames/micronucleus/aberration tests
Experiment: CCRIS mutagenicity studies
[1] = Test System: AMES SALMONELLA TYPHIMURIUM, Strain/Indicator: TA98, Metabolic Activation: HAMSTER, LIVER, S-9, AROCLOR 1254 (10%), Method: PREINCUBATION
[2] = Test System: AMES SALMONELLA TYPHIMURIUM, Strain/Indicator: TA98, Metabolic Activation: NONE, Method: PREINCUBATION
[3] = Test System: AMES SALMONELLA TYPHIMURIUM, Strain/Indicator: TA98, Metabolic Activation: RAT, LIVER, S-9, AROCLOR 1254 (10%), Method: PREINCUBATION
[4] = Test System: AMES SALMONELLA TYPHIMURIUM, Strain/Indicator: TA100, Metabolic Activation: HAMSTER, LIVER, S-9, AROCLOR 1254 (10%), Method: PREINCUBATION
[5] = Test System: AMES SALMONELLA TYPHIMURIUM, Strain/Indicator: TA100, Metabolic Activation: NONE, Method: PREINCUBATION
[6] = Test System: AMES SALMONELLA TYPHIMURIUM, Strain/Indicator: TA100, Metabolic Activation: RAT, LIVER, S-9, AROCLOR 1254 (10%), Method: PREINCUBATION
[7] = Test System: AMES SALMONELLA TYPHIMURIUM, Strain/Indicator: TA1535, Metabolic Activation: HAMSTER, LIVER, S-9, AROCLOR 1254 (10%), Method: PREINCUBATION
[8] = Test System: AMES SALMONELLA TYPHIMURIUM, Strain/Indicator: TA1535, Metabolic Activation: NONE, Method: PREINCUBATION
[9] = Test System: AMES SALMONELLA TYPHIMURIUM, Strain/Indicator: TA1535, Metabolic Activation: RAT, LIVER, S-9, AROCLOR 1254 (10%), Method: PREINCUBATION
[10] = Test System: AMES SALMONELLA TYPHIMURIUM, Strain/Indicator: TA1537, Metabolic Activation: HAMSTER, LIVER, S-9, AROCLOR 1254 (10%), Method: PREINCUBATION
[11] = Test System: AMES SALMONELLA TYPHIMURIUM, Strain/Indicator: TA1537, Metabolic Activation: NONE, Method: PREINCUBATION
[12] = Test System: AMES SALMONELLA TYPHIMURIUM, Strain/Indicator: TA1537, Metabolic Activation: RAT, LIVER, S-9, AROCLOR 1254 (10%), Method: PREINCUBATION
[13] = Test System: AMES SALMONELLA TYPHIMURIUM, Strain/Indicator: TA98, Metabolic Activation: RAT, LIVER, S-9, AROCLOR 1254, Method: STANDARD PLATE
[14] = Test System: AMES SALMONELLA TYPHIMURIUM, Strain/Indicator: TA98, Metabolic Activation: NONE, Method: STANDARD PLATE
[15] = Test System: AMES SALMONELLA TYPHIMURIUM, Strain/Indicator: TA100, Metabolic Activation: NONE, Method: STANDARD PLATE
[16] = Test System: AMES SALMONELLA TYPHIMURIUM, Strain/Indicator: TA1535, Metabolic Activation: NONE, Method: STANDARD PLATE
[17] = Test System: AMES SALMONELLA TYPHIMURIUM, Strain/Indicator: TA1538, Metabolic Activation: NONE, Method: STANDARD PLATE
[18] = Test System: MOUSE LYMPHOMA, Strain/Indicator: L5178Y (TK+/TK-), Metabolic Activation: NONE, Method: SUSPENSION/PLATE

In the case of `Cc1ccc(OP(=O)(Oc2ccc(C)cc2C)Oc2ccc(C)cc2C)c(C)c1`, the mutagenic call [1] is reported as “inactive; negative”, the mutagenic call [2] is reported as “inactive; negative” and the mutagenic call [3] is reported as “inactive; negative”. For the same compound, the mutagenic call [4] was “inactive; negative”, the mutagenic call [5] was “inactive; negative” and the mutagenic call [6] was “inactive; negative”. The mutagenic call [7] was “inactive; negative”, the mutagenic call [8] was “inactive; negative” and the mutagenic call [9] was “inactive; negative”. The mutagenic call [10] was “inactive; negative”, the mutagenic call [11] was “inactive; negative” and the mutagenic call [12] was “inactive; negative”.

With `Cc1cc2nccnc2c2nc(N)n(C)c12` the mutagenic call [13] was “active; positive”.

In the case of `C=CCCCCCCCC`, the mutagenic call (Test System: AMES SALMONELLA TYPHIMURIUM, Strain/Indicator: TA98, Metabolic Activation: MOUSE, LIVER, S-9, Method: STANDARD PLATE) is reported as “inactive; negative”, the mutagenic call [14] is reported as “inactive; negative” and the mutagenic call (Test System: AMES SALMONELLA TYPHIMURIUM, Strain/Indicator: TA100, Metabolic Activation: MOUSE, LIVER, S-9, Method: STANDARD PLATE) is reported as “inactive; negative”. The mutagenic call [15] was “inactive; negative”, the mutagenic call [16] was “inactive; negative” and the mutagenic call [17] was “inactive; negative”.

In the case of `CC(=O)/C=C/c1ccc2c(c1)OCO2`, the mutagenic call [1] is reported as “inactive; negative”, the mutagenic call [2] is reported as “inactive; negative” and the mutagenic call [3] is reported as “inactive; negative”. The mutagenic call [4] was “inactive; negative”, the mutagenic call [5] was “inactive; negative” and the mutagenic call [6] was “inactive; negative”. For the same compound, the mutagenic call [7] was “inactive; negative”, the mutagenic call [8] was “inactive; negative” and the mutagenic call [9] was “inactive; negative”. The mutagenic call [10] was “inactive; negative”, the mutagenic call [11] was “inactive; negative” and the mutagenic call [12] was “inactive; negative”.

For `NC(=O)c1cc[n+](COC[n+]2ccccc2/C=N/O)cc1`, the mutagenic call [14] was “inactive; negative”, the mutagenic call (Test System: AMES SALMONELLA TYPHIMURIUM, Strain/Indicator: TA98, Metabolic Activation: RAT, LIVER, S-9, Method: STANDARD PLATE) was “inactive; negative” and the mutagenic call [15] was “inactive; negative”. For the same compound, the mutagenic call (Test System: AMES SALMONELLA TYPHIMURIUM, Strain/Indicator: TA100, Metabolic Activation: RAT, LIVER, S-9, Method: STANDARD PLATE) was “inactive; negative”, the mutagenic call [16] was “inactive; negative” and the mutagenic call (Test System: AMES SALMONELLA TYPHIMURIUM, Strain/Indicator: TA1535, Metabolic Activation: RAT, LIVER, S-9, Method: STANDARD PLATE) was “inactive; negative”. For the same compound, the mutagenic call (Test System: AMES SALMONELLA TYPHIMURIUM, Strain/Indicator: TA1537, Metabolic Activation: NONE, Method: STANDARD PLATE) was “inactive; negative”, the mutagenic call (Test System: AMES SALMONELLA TYPHIMURIUM, Strain/Indicator: TA1537, Metabolic Activation: RAT, LIVER, S-9, Method: STANDARD PLATE) was “inactive; negative” and the mutagenic call [17] was “inactive; negative”. For the same compound, the mutagenic call (Test System: AMES SALMONELLA TYPHIMURIUM, Strain/Indicator: TA1538, Metabolic Activation: RAT, LIVER, S-9, Method: STANDARD PLATE) was “inactive; negative”, the mutagenic call (Test System: CHINESE HAMSTER OVARY, Strain/Indicator: CHO-K1-BH4 (HGPRT)/6-THIOGUANINE, Metabolic Activation: NONE) was “inactive; negative” and the mutagenic call (Test System: CHINESE HAMSTER OVARY, Strain/Indicator: CHO-K1-BH4 (HGPRT)/6-THIOGUANINE, Metabolic Activation: RAT, LIVER, S-9, Method: SUSPENSION/PLATE) was “inactive; negative”. The mutagenic call [18] was “inactive; negative”.

For `[CH]#[W]`, the mutagenic call (End Point: IN VITRO MICRONUCLEUS, Test System: HUMAN LYMPHOCYTES, Metabolic Activation: NONE) was “active; positive”.

With `O=S(=O)(O)Oc1ccc2ccc3cc4ccccc4c4ccc1c2c34` the mutagenic call [2] was “active; positive”, the mutagenic call (Test System: AMES SALMONELLA TYPHIMURIUM, Strain/Indicator: TA98, Metabolic Activation: RAT, LIVER, S-9, AROCLOR 1254, Method: PREINCUBATION) was “active; positive” and the mutagenic call (Test System: AMES SALMONELLA TYPHIMURIUM, Strain/Indicator: TA98, Metabolic Activation: RAT, LUNG, S-9, Method: PREINCUBATION) was “active; positive”.

For `C1CC[C@H]2O[C@H]2C1`, the mutagenic call (Test System: AMES SALMONELLA TYPHIMURIUM, Strain/Indicator: TA98, Metabolic Activation: HAMSTER, LIVER, S-9, AROCLOR 1254, Method: STANDARD PLATE) was “active; positive”, the mutagenic call [2] was “inactive; negative” and the mutagenic call (Test System: AMES SALMONELLA TYPHIMURIUM, Strain/Indicator: TA98, Metabolic Activation: RAT LIVER S-9, PHENOBARBITAL AND BETA-NAPHTHOFLAVONE, Method: PREINCUBATION) was “inactive; negative”. The mutagenic call [13] was “active; positive”, the mutagenic call (Test System: AMES SALMONELLA TYPHIMURIUM, Strain/Indicator: TA100, Metabolic Activation: HAMSTER, LIVER, S-9, AROCLOR 1254, Method: STANDARD PLATE) was “active; positive” and the mutagenic call [5] was “active; positive”. The mutagenic call [15] was “active; positive”, the mutagenic call (Test System: AMES SALMONELLA TYPHIMURIUM, Strain/Indicator: TA100, Metabolic Activation: RAT LIVER S-9, PHENOBARBITAL AND BETA-NAPHTHOFLAVONE, Method: PREINCUBATION) was “active; positive” and the mutagenic call (Test System: AMES SALMONELLA TYPHIMURIUM, Strain/Indicator: TA100, Metabolic Activation: RAT, LIVER, S-9, AROCLOR 1254, Method: STANDARD PLATE) was “active; positive”. For the same compound, the mutagenic call [8] was “active; positive”, the mutagenic call [16] was “active; positive” and the mutagenic call (Test System: AMES SALMONELLA TYPHIMURIUM, Strain/Indicator: TA1535, Metabolic Activation: RAT LIVER S-9, PHENOBARBITAL AND BETA-NAPHTHOFLAVONE, Method: PREINCUBATION) was “active; positive”. The mutagenic call [11] was “inactive; negative”, the mutagenic call (Test System: AMES SALMONELLA TYPHIMURIUM, Strain/Indicator: TA1537, Metabolic Activation: RAT LIVER S-9, PHENOBARBITAL AND BETA-NAPHTHOFLAVONE, Method: PREINCUBATION) was “inactive; negative” and the mutagenic call (Test System: AMES SALMONELLA TYPHIMURIUM, Strain/Indicator: TA1538, Metabolic Activation: NONE, Method: PREINCUBATION) was “inactive; negative”. The mutagenic call (Test System: AMES SALMONELLA TYPHIMURIUM, Strain/Indicator: TA1538, Metabolic Activation: RAT LIVER S-9, PHENOBARBITAL AND BETA-NAPHTHOFLAVONE, Method: PREINCUBATION) was “inactive; negative”, the mutagenic call (Test System: E. COLI, Strain/Indicator: WP2UVRA, Metabolic Activation: NONE, Method: PREINCUBATION) was “inactive; negative” and the mutagenic call (Test System: E. COLI, Strain/Indicator: WP2UVRA, Metabolic Activation: RAT LIVER S-9, PHENOBARBITAL AND BETA-NAPHTHOFLAVONE, Method: PREINCUBATION) was “active; positive”. The mutagenic call [18] was “active; positive. reevaluation of results: positive” and the mutagenic call (Test System: Mouse lymphoma, Strain/Indicator: L5178Y (tk+/tk-), Metabolic Activation: Rat, Liver, S-9, Aroclor 1254, Method: Suspension/plate) was “active; positive”.
